{"source": "patent US11407728B2", "about": "“Derivatives of EPA endocannabinoid epoxides as anti-inflammatory, anti-cancerous, anti-angiogenc and antiplatelet aggregation compounds” (The Board of Trustees of the University of Illinois, priority 2017, dated 2022)", "key": {"[1]": {"test_system": "mouse BV-2 microglial cells", "experiment": "Anti-inflammatory assay in BV-2 microglial cells, IL-6 secretion (ELISA) after LPS stimulation", "assay_type": "cell-based", "conditions": "BV-2 cells pre-incubated 4 hours with varying concentrations, 25 ng/mL LPS, media collected at 24 hours", "description": "FIG. 3A, FIG. 3B, FIG. 3C and FIG. 3D show the dose-dependent NO and Il-6 studies for 17,18-EEQ-EA and 8,9-EEQ-EA. BV-2 microglial cells were pre-incubated with varying concentrations of 17,18-EEQ-EA or 8,9-EEQ-EA for 4 hours followed by LPS (25 ng/mL) stimulation. Culture medium was collected after 24 hours and analyzed for NO (A, C) and IL-6 (B, D) production. Significant P values are indicated as *** (P≤0.001), ** (P≤0.01), and * (P≤0.05). Values are expressed as mean±SEM and +/− indicates LPS added or LPS not added. * represents P<0.05, ** represents P<0.01, *** represents P<0.001, **** represents P<0.0001 relative to LPS.\nExperiments were performed with mouse BV-2 microglial cells. Cells were grown and maintained in Dulbecco's modified Eagle's medium supplemented with 10% fetal bovine serum, 1% streptomycin and penicillin at 37° C. in a 5% CO2 humidified air atmosphere. BV-2 cells were seeded in 24-well plates (200K cells/mL) and grown to 80-90% confluency. […] To determine nitrite and IL-6 production, media was collected at 24 hours and the production of nitric oxide (NO) was determined by using the Greiss method and IL-6 secretion was measured using ELISA (no. 583371; Cayman Chemical)."}, "recombinant sEH": {"molecular_target": "T1, recombinant sEH (Homo sapiens, UniProt P34913)", "T1 sequence (P34913 1-555)": "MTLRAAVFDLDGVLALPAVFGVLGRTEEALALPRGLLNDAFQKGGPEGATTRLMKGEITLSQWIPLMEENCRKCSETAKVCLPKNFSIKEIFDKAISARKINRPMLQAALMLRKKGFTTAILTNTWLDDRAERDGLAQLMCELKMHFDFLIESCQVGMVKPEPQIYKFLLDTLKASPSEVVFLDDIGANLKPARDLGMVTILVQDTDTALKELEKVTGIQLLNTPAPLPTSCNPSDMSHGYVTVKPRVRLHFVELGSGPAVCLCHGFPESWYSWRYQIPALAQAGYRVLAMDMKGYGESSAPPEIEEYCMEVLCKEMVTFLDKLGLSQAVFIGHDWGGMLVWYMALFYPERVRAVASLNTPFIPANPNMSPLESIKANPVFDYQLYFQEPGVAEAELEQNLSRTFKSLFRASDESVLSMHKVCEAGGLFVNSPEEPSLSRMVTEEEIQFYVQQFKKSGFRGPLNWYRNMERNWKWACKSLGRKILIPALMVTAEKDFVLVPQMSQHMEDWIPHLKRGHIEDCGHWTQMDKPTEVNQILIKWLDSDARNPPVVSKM", "experiment": "Soluble epoxide hydrolase (sEH) hydrolysis kinetics", "assay_type": "in vitro ADME", "conditions": "8,9-EEQ-EA versus 17,18 EEQ-EA", "description": "(§1) FIG. 4A, FIG. 4B, FIG. 4C and FIG. 4D show FAAH (FIG. 4B and FIG. 4D) and sEH (FIG. 4A and FIG. 4C) hydrolysis of 17,18-EEQ-EA and 8,9-EEQ-EA, respectively. To determine the rate of hydrolysis by sEH, increasing substrate (8,9-EEQ-EA) concentrations were incubated at 37° C. with sEH ([E]final=6 nM). For Vmax and Km values, plots were fitted to the Michaelis-Menten equation using Origin Pro. For FAAH hydrolysis, membranes from rat forebrain tissue were isolated for time-based hydrolysis. Incubations were performed with 100 μg of forebrain protein and 50 μM of substrate for 5, 20 and 40 minutes at 37° C. Both reactions were measured for product conversion using LC-MS/MS.\nFor soluble epoxide hydrolase (sEH) kinetics, increasing concentrations of substrates (8,9-EEQ-EA (FIG. 4C) and 17,18-EEQ-EA (FIG. 4A)) were incubated with recombinant sEH (final [6 nM]) in a 0.1 mL reaction containing NaPO4 (0.1 M, pH 7.4), bovine serum albumin (0.1 mg/ml) at 37° C. The enzymatic reaction was stopped after 5 min with equal volume of methanol with AUDA (0.5 μM) and centrifuged at 10,000 g for 10 min. The supernatant was saved and quantitated using LC-MS/MS. Data was fit to kinetic curves and the Michaelis-Menten equation was used to calculate Vmax and Km."}, "[2]": {"molecular_target": "T2, fatty acid amide hydrolase (FAAH) (Rattus norvegicus, UniProt P97612)", "T2 construct": "incubated with 100 μg forebrain membrane; from tissue; host or cells: rat forebrain membranes", "T2 sequence (P97612 1-579)": "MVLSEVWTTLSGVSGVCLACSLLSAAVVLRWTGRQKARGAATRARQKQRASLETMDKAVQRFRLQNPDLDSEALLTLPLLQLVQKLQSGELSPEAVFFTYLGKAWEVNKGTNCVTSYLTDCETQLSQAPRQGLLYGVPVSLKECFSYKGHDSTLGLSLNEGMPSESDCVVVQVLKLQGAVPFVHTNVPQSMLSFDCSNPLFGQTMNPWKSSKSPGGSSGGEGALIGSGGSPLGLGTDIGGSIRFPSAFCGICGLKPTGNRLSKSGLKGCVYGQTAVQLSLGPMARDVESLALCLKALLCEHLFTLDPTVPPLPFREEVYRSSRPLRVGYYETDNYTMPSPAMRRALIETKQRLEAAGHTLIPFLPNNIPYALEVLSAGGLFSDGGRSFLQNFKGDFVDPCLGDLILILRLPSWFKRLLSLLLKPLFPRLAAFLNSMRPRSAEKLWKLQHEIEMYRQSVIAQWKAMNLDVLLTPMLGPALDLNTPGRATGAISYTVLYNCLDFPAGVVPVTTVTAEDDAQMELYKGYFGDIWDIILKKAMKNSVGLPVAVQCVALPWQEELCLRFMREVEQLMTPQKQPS", "experiment": "Fatty acid amide hydrolase (FAAH) hydrolysis in rat forebrain membranes", "assay_type": "in vitro ADME", "conditions": "50 μM substrate, 100 μg rat forebrain membrane, 5, 20 and 40 minutes, 37° C.", "description": "as §1\nFor fatty acid amide hydrolase (FAAH) kinetics (FIG. 4B and FIG. 4D), rat forebrain membranes were homogenized in buffer (50 mM Tris pH 7.4, 1 mM EDTA and 3 mM MgCl2) and membrane pellet was collected as previously described. 8,9-EEQ-EA or 13,14-EDP-EA (50 μM) was incubated with 100 μg forebrain membrane containing 50 mM Tris (pH 7.4), 1 mM EDTA, 3 mM MgCl2 in a 0.5 mL reaction. Linearity of the reactions was confirmed at 5, 20 and 40 minutes. Reactions were stopped with methanol containing 1 mM PMSF and centrifuged at 10,000 g for 10 min to collect supernatant via LC-MS/MS."}, "[3]": {"molecular_target": "T3, CNR1 (cannabinoid receptor 1) (Homo sapiens, UniProt P21554)", "T3 construct": "Tango fusion module; by own knowledge of the PRESTO-Tango design: V2 tail, TEV cleavage site, tTA; (C); own knowledge of the PRESTO-Tango design; (N); host or cells: HTLA cells", "T3 sequence (P21554 whole entry, the tested form may be a part)": "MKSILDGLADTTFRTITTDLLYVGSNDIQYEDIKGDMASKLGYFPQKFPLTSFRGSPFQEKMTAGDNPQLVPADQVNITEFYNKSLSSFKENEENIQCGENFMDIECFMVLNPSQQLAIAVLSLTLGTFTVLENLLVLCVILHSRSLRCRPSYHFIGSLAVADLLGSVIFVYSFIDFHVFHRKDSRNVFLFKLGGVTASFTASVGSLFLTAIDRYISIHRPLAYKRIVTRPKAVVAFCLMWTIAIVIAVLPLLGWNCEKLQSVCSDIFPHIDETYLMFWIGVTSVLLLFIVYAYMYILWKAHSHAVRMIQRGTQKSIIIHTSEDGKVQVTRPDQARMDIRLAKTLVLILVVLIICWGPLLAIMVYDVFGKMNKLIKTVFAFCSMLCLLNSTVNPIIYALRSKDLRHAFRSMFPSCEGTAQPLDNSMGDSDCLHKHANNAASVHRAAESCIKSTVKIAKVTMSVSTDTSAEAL", "experiment": "Presto-Tango β-arrestin recruitment assay, CNR1", "assay_type": "cell-based", "conditions": "CNR1-transfected HTLA cells, luminescence, 1 μM AUDA; read-out: EC50 CNR1 activation", "description": "(§2) FIG. 5A and FIG. 5B show dose-response curves for cannabinoid receptor 1 (CNR1) and cannabinoid receptor 2 (CNR2), respectively. The dose response curves were generated by monitoring the relative luminescence of cannabinoid receptor 1 (CNR1) and cannabinoid receptor 2 (CNR2) of PRESTO-Tango gene-transfected HTLA cells for 17,18-EEQ-EA, EPEA, and CP 55940. Values shown are the mean±SEM of experiments performed multiple times (n=3-7) *P<0.05, **P<0.01, and ***P<0.001.\n(§3) Binding of the parent compounds to putative receptors CNR1 and CNR2 (cannabinoid receptors 1 & 2) was measured by a Presto-Tango assay (FIG. 5A and FIG. 5B, respectively). These receptors are responsible for many downstream effects of marijuana derivatives as well as other endocannabinoids that have been previously reported in literature and this study explores if our compounds bind to these receptors. HTLA cells were received from the Roth Lab and CNR1 and CNR2 plasmids were purchased from Addgene. […] The following day, media was removed and 40 μL of diluted Bright-Glo solution (Promega, Madison. Wis.) was added to each well and incubated in the dark for 20 min at room temperature before luminescence recordings. Relative luminescence units (RLU) values were normalized to % receptor response, plotted as a function of compound concentration and analyzed using “DoseResp” in OriginPro."}, "[4]": {"molecular_target": "T4, CNR2 (cannabinoid receptor 2) (Homo sapiens, UniProt P34972)", "T4 construct": "Tango fusion module; by own knowledge of the PRESTO-Tango design: V2 tail, TEV cleavage site, tTA; (C); own knowledge of the PRESTO-Tango design; (N); host or cells: HTLA cells", "T4 sequence (P34972 whole entry, the tested form may be a part)": "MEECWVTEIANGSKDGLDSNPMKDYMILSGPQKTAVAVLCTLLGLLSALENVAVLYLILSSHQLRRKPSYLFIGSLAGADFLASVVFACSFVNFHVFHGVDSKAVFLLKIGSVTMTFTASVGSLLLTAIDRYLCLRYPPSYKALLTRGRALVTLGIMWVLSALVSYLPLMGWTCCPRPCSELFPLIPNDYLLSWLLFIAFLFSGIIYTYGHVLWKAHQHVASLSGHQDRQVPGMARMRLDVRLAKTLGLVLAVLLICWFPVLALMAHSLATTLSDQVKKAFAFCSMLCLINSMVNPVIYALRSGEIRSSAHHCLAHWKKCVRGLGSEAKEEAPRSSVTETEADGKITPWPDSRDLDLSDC", "experiment": "Presto-Tango β-arrestin recruitment assay, CNR2", "assay_type": "cell-based", "conditions": "CNR2-transfected HTLA cells, luminescence, 1 μM AUDA; read-out: EC50 CNR2 activation", "description": "as §2, §3"}}}
{"smiles": "CC/C=C\\C/C=C\\C/C=C\\CC1OC1C/C=C\\CCCC(=O)NCCO", "note": "(stereo not drawn) [8,9-EEQ-EA]", "values": [{"measurement": "IL-6 secretion", "setting": "[1]", "value": "reduced IL-6 in a dose-dependent manner"}, {"measurement": "sEH turnover rate relative to 17,18 EEQ-EA (times)", "setting": "recombinant sEH", "value": 4, "unit": "times"}, {"measurement": "rate of FAAH hydrolysis to the corresponding EEQ", "setting": "[2]", "value": "comparable to the rate of 17, 18-EEQ-EA to 17,18-EEQ"}]}
{"smiles": "CCC1OC1C/C=C\\C/C=C\\C/C=C\\C/C=C\\CCCC(=O)NCCO", "note": "(stereo not drawn) [17,18-EEQ-EA]", "values": [{"measurement": "IL-6 secretion", "setting": "[1]", "value": "reduced IL-6 in a dose-dependent manner"}, {"measurement": "EC50", "setting": "[3]", "value": 18.5, "unit": "nM"}, {"measurement": "EC50", "setting": "[4]", "value": 1.4, "unit": "nM"}]}
